Where two headings read alike, the source gives them in different places.
What was measured:
[1] = tested on: passive cutaneous anaphylaxis (PCA); test: PCA response in rats; type: in vivo, Wistar male rats; conditions: Rattus norvegicus, read-out: 50% inhibiting dose (ED50) in the rat PCA
Description: [1] PCA response in rats:
Wistar male rats weighing 190-220 g were used. A diluted anti-dinitrophenyl-Ascalis (DNP-As) rat serum (each 0.1 ml) was intracutaneously injected into the back of the animals, by which the animals were passively sensitized. After 48 hours, Evans blue liquid (1.0 ml) containing DNP-As (20 mg, as a protein) was intravenously injected to the animals to induce PCA.
After 30 minutes, rats were killed, and the skin at the response region was peeled off, and the amount of color was measured spectrophotometrically. Test compounds were administered 30 minutes (in case of intraperitoneal injection) or one hour (in case of oral administration) before the challenge with the antigen.
The data of the references: disodium chromoglycate (SDCG) and Tranilast are also shown therein.

SRS-A = test: Anti-SRS-A action, Magnus method using the isolated guinea pig ileum; conditions: crude SRS-A after 3 minutes; for IC50: read-out: 50% inhibition concentration
Description: The anti-SRS-A activity of the compounds of the present invention was measured by Magnus method using the isolated guinea pig ileum. An extracted ileum of guinea pig was hung within a Magnus vessel which was maintained at 31±1° C. and then pre-treated with mepiramine to remove any effect by histamine. Test compound was administered in a dose of 3×10^-5 to 10^-3 M, and after 3 minutes, a previously prepared crude SRS-A was acted thereto, and then, the shrink rate (%) of the ileum was measured.

[2] = Toxicity test in mice (LD50, Litchfield-Wilcoxon method); conditions: mouse, in vivo, ip; mortality during 7 days; ddY male mice; read-out: 50% lethal dose (LD50)
Description: The test compound was suspended in 0.5% carboxymethylcellulose solution, and the suspension was intraperitoneally administered to ddY male mice (weighing 20-25 g, one group: 10 mice). Based on the total mortality during 7 days after the administration of the test compound, the 50% lethal dose (LD50) was calculated by Litchfield-Wilcoxon method. The data of reference (Tranilast) are also shown therein.

[3] = as above; conditions: mouse, in vivo, po; mortality during 7 days; ddY male mice; read-out: 50% lethal dose (LD50)
[4] = ip, 30 minutes before the challenge with the antigen
[5] = po, 1 h, p.o., one hour before the challenge with the antigen

Row | Structure (SMILES) | ED50 [1, 4] [mg/kg] | ED50 [1, 5] [mg/kg] | IC50 (SRS-A) [µM] | Inhibition rate (SRS-A; test compd. 3 × 10^-4 M) [%] | Inhibition rate (SRS-A; test compd. 10^-3 M) [%] | Inhibition rate (SRS-A; test compd. 10^-4 M) [%] | LD50 at 168 h [2] [mg/kg] | LD50 at 168 h [3] [mg/kg] | Inhibition rate (SRS-A; test compd. 3 × 10^-5 M) [%]
1 | CC(C)Oc1ccccc1Nc1ncc(C(=O)O)c(=O)[nH]1 [Example 50, 1,6-dihydro-2-[b 2-(1-methylethoxy)anilino]-6-oxo-5-pyrimidinecarboxylic acid] | 13 | 75 | – | – | – | – | – | – | –
2 | CCCOc1ccccc1Nc1ncc(C(=O)O)c(=O)[nH]1 [Example 49, 1,6-dihydro-2-(2-propoxyanilino)-6-oxo-5-pyrimidinecarboxylic acid] | 11 | 22.2 | 487 | 17.9 | 97.3 | 8.1 | 1160 | > 3000 | –
3 | CC(C)COc1ccccc1Nc1ncc(C(=O)O)c(=O)[nH]1 [Example 52, 1,6-dihydro-2-[2-(2-methylpropoxy)anilino]-6-oxo-5-pyrimidinecarboxylic acid] | 4.7 | 39 | 154 | 87.9 | – | 26.2 | 780 | > 3000 | 12.2
4 | CCCCOc1ccccc1Nc1ncc(C(=O)O)c(=O)[nH]1 [Example 51, 1,6-dihydro-2-(2-butoxyanilino)-6-oxo-5-pyrimidinecarboxylic acid] | 10.7 | 92 | – | – | – | – | 1230 | > 3000 | –
5 | O=C(O)c1cc(=O)c2c(OCC(O)COc3cccc4oc(C(=O)O)cc(=O)c34)cccc2o1 [DSCG, disodium chromoglycate, reference compound] | 3.3 | > 200 | > 1000 | – | 6 | – | – | – | –
6 | CCOc1ccccc1Nc1ncc(C(=O)O)c(=O)[nH]1 [Example 48, 1,6-dihydro-2-(2-ethoxyanilino)-6-oxo-5-pyrimidinecarboxylic acid] | 20.2 | 98 | – | – | – | – | > 500 | > 3000 | –
7 | COc1ccc(/C=C/C(=O)Nc2ccccc2C(=O)O)cc1OC [Tranilast, reference compound] | 40 | 110 | > 1000 | 32.4 | 48.2 | 23.5 | 430 | 780 | –

From US4666915A, “2-anilino-1,6-dihydro-6-oxo-5-pyrimidine-carboxylic acid derivatives, process for the preparation thereof, and antiallergic agent containing the same” (Morishita Pharmaceutical Co. Ltd., priority 1984, dated 1987)
